Measured values taken from US12084485B2 (Intarcia Therapeutics, Inc., priority 2020, dated 2024).

Tests used:
[1] = Acute food intake inhibition in Long Evans rats after bolus SC dosing (BioDAQ); format: in vivo, rat; conditions: 30 mcg SC bolus
[2] = Stability in DMSO or DI water at 37° C. (purity by LC/MS and HPLC); format: physicochemical
[3] = Solubility in saline or DI water at room temperature (visual inspection); format: physicochemical

solubility ([3]; Solubility (mg/mL) in DI water)	solubility ([3]; Solubility (mg/mL) in saline)	SMILES	further results
		CC[C@H](C)[C@H](NC(=O)[C@H](Cc1ccccc1)NC(=O)[C@H](CCCCN)NC(=O)[C@H](CCCNC(=N)N)NC(=O)[C@H](C)NC(=O)[C@H](C)NC(=O)[C@H](CCC(=O)O)NC(=O)[C@H](CCCCNC(=O)CC[C@H](NC(=O)CC[C@H](NC(=O)COCCOCCNC(=O)CCCCCCCCCCCCCCCCCCC(=O)O)C(=O)O)C(=O)O)NC(=O)[C@H](CCC(=O)O)NC(=O)[C@H](Cc1ccc(O)cc1)NC(=O)[C@H](CCC(N)=O)NC(=O)[C@H](CCCCN)NC(=O)[C@H](CO)NC(=O)[C@H](CC(C)C)NC(=O)[C@H](CC(=O)O)NC(=O)[C@H](CO)NC(=O)[C@@H](NC(=O)[C@H](Cc1ccccc1)NC(=O)[C@@H](NC(=O)CNC(=O)[C@H](CCC(=O)O)NC(=O)C(C)(C)NC(=O)[C@@H](N)Cc1c[nH]cn1)[C@@H](C)O)[C@@H](C)O)C(=O)N[C@@H](CO)C(=O)N[C@@H](Cc1c[nH]c2ccccc12)C(=O)N[C@@H](CC(C)C)C(=O)N[C@@H](CCCCN)C(=O)N[C@@H](CC(N)=O)C(=O)NCC(=O)NCC(=O)N1CCC[C@H]1C(=O)N[C@@H](Cc1c[nH]cn1)C(=O)N[C@@H](CO)C(=O)NCC(=O)N[C@@H](C)C(=O)N1CCC[C@H]1C(=O)N1CCC[C@H]1C(=O)N1CCC[C@H]1C(=O)N[C@@H](CO)C(N)=O [Compound A62]	% Food Intake Inhibition from Vehicle, 0-24 hr ([1]; 0-24 hr): −37.1%; % Food Intake Inhibition from Vehicle, 25-48 hr ([1]; 25-48 hr): −48.8%; % Food Intake Inhibition from Vehicle, 49-72 hr ([1]; 49-72 hr): −47.4%; % Food Intake Inhibition from Vehicle, 73-96 hr ([1]; 73-96 hr): 19.5%
		CC[C@H](C)[C@H](NC(=O)[C@H](Cc1ccccc1)NC(=O)[C@H](CCC(=O)O)NC(=O)[C@H](CCCNC(=N)N)NC(=O)[C@H](C)NC(=O)[C@H](C)NC(=O)[C@H](CCC(=O)O)NC(=O)[C@H](CCNC(=O)CC[C@H](NC(=O)CC[C@H](NC(=O)COCCOCCNC(=O)CC[C@H](NC(=O)CC[C@H](NC(=O)CCCCCCCCCCCCCCCCCCC(=O)O)C(=O)O)C(=O)O)C(=O)O)C(=O)O)NC(=O)[C@H](CCC(=O)O)NC(=O)[C@H](Cc1ccc(O)cc1)NC(=O)[C@H](CCC(N)=O)NC(=O)[C@H](CCCCN)NC(=O)[C@H](CO)NC(=O)[C@H](CC(C)C)NC(=O)[C@H](CC(=O)O)NC(=O)[C@H](CO)NC(=O)[C@@H](NC(=O)[C@H](Cc1ccccc1)NC(=O)[C@@H](NC(=O)CNC(=O)[C@H](CCC(=O)O)NC(=O)C(C)(C)NC(=O)[C@@H](N)Cc1c[nH]cn1)[C@@H](C)O)[C@@H](C)O)C(=O)N[C@@H](CCC(=O)O)C(=O)N[C@@H](Cc1c[nH]c2ccccc12)C(=O)N[C@@H](CC(C)C)C(=O)N[C@@H](CCCCN)C(=O)N[C@@H](CC(N)=O)C(=O)NCC(=O)NCC(=O)N1CCC[C@H]1C(=O)N[C@@H](CO)C(=O)N[C@@H](CO)C(=O)NCC(=O)N[C@@H](C)C(=O)N1CCC[C@H]1C(=O)N1CCC[C@H]1C(=O)N1CCC[C@H]1C(=O)N[C@@H](CO)C(N)=O [Compound A72]	Stability @ 37° C. (% purity) Day 14 [2]: 98.7%; Stability @ RT (% purity) Day 28 [2]: 95.1%
> 78 mg/mL	> 75 mg/mL	CC[C@H](C)[C@H](NC(=O)[C@H](Cc1ccccc1)NC(=O)[C@H](CCC(=O)O)NC(=O)[C@H](CCCNC(=N)N)NC(=O)[C@H](C)NC(=O)[C@H](C)NC(=O)[C@H](CCC(=O)O)NC(=O)[C@H](CCCCNC(=O)CC[C@H](NC(=O)CC[C@H](NC(=O)COCCOCCNC(=O)CC[C@H](NC(=O)CC[C@H](NC(=O)CCCCCCCCCCCCCCCCCCC(=O)O)C(=O)O)C(=O)O)C(=O)O)C(=O)O)NC(=O)[C@H](CCC(=O)O)NC(=O)[C@H](Cc1ccc(O)cc1)NC(=O)[C@H](CCC(N)=O)NC(=O)[C@H](CCC(=O)O)NC(=O)[C@H](CO)NC(=O)[C@@H](NC(=O)[C@H](CC(=O)O)NC(=O)[C@H](CO)NC(=O)[C@@H](NC(=O)[C@H](Cc1ccccc1)NC(=O)[C@@H](NC(=O)CNC(=O)[C@H](CCC(=O)O)NC(=O)C(C)(C)NC(=O)[C@@H](N)Cc1c[nH]cn1)[C@@H](C)O)[C@@H](C)O)[C@@H](C)CC)C(=O)N[C@@H](CCC(=O)O)C(=O)N[C@@H](Cc1c[nH]c2ccccc12)C(=O)N[C@@H](CC(C)C)C(=O)N[C@@H](CCCCN)C(=O)N[C@@H](CC(N)=O)C(=O)NCC(=O)NCC(=O)N1CCC[C@H]1C(=O)N[C@@H](CO)C(=O)N[C@@H](CO)C(=O)NCC(=O)N[C@@H](C)C(=O)N1CCC[C@H]1C(=O)N1CCC[C@H]1C(=O)N1CCC[C@H]1C(=O)N[C@@H](CO)C(N)=O [Compound A80]	
> 128 mg/mL	> 133 mg/mL	CC[C@H](C)[C@H](NC(=O)[C@H](Cc1ccccc1)NC(=O)[C@H](CCC(N)=O)NC(=O)[C@H](CCCNC(=N)N)NC(=O)[C@@H](NC(=O)[C@H](C)NC(=O)[C@H](CCC(=O)O)NC(=O)[C@H](CCCCNC(=O)CC[C@H](NC(=O)CC[C@H](NC(=O)COCCOCCNC(=O)CCCCCCCCCCCCCCCCCCC(=O)O)C(=O)O)C(=O)O)NC(=O)[C@H](CCC(=O)O)NC(=O)[C@H](Cc1ccc(O)cc1)NC(=O)[C@H](CCC(N)=O)NC(=O)[C@H](CCCCN)NC(=O)[C@H](CO)NC(=O)[C@H](CC(C)C)NC(=O)[C@H](CC(=O)O)NC(=O)[C@H](CO)NC(=O)[C@@H](NC(=O)[C@H](Cc1ccccc1)NC(=O)[C@@H](NC(=O)CNC(=O)[C@H](CCC(=O)O)NC(=O)C(C)(C)NC(=O)[C@@H](N)Cc1c[nH]cn1)[C@@H](C)O)[C@@H](C)O)C(C)C)C(=O)N[C@@H](CO)C(=O)N[C@@H](Cc1c[nH]c2ccccc12)C(=O)N[C@@H](CC(C)C)C(=O)N[C@@H](CCCCN)C(=O)N[C@@H](CC(N)=O)C(=O)NCC(=O)NCC(=O)N1CCC[C@H]1C(=O)N[C@@H](CO)C(=O)N[C@@H](CO)C(=O)NCC(=O)N[C@@H](C)C(=O)N1CCC[C@H]1C(=O)N1CCC[C@H]1C(=O)N1CCC[C@H]1C(=O)N[C@@H](CO)C(N)=O [Compound A96]	
> 109 mg/mL	> 101 mg/mL	CC[C@H](C)[C@H](NC(=O)[C@H](Cc1ccccc1)NC(=O)[C@H](CCC(=O)O)NC(=O)[C@H](CCCNC(=N)N)NC(=O)[C@@H](NC(=O)[C@H](C)NC(=O)[C@H](CCC(=O)O)NC(=O)[C@H](CCCCNC(=O)CC[C@H](NC(=O)CC[C@H](NC(=O)COCCOCCNC(=O)CCCCCCCCCCCCCCCCCCC(=O)O)C(=O)O)C(=O)O)NC(=O)[C@H](CCC(=O)O)NC(=O)[C@H](Cc1ccc(O)cc1)NC(=O)[C@H](CCC(N)=O)NC(=O)[C@H](CCCCN)NC(=O)[C@H](CO)NC(=O)[C@H](CC(C)C)NC(=O)[C@H](CC(=O)O)NC(=O)[C@H](CO)NC(=O)[C@@H](NC(=O)[C@H](Cc1ccccc1)NC(=O)[C@@H](NC(=O)CNC(=O)[C@H](CCC(=O)O)NC(=O)C(C)(C)NC(=O)[C@@H](N)Cc1c[nH]cn1)[C@@H](C)O)[C@@H](C)O)C(C)C)C(=O)N[C@@H](CCC(=O)O)C(=O)N[C@@H](Cc1c[nH]c2ccccc12)C(=O)N[C@@H](CC(C)C)C(=O)N[C@@H](CCCCN)C(=O)N[C@@H](CC(N)=O)C(=O)NCC(=O)NCC(=O)N1CCC[C@H]1C(=O)N[C@@H](Cc1c[nH]cn1)C(=O)N[C@@H](CO)C(=O)NCC(=O)N[C@@H](C)C(=O)N1CCC[C@H]1C(=O)N1CCC[C@H]1C(=O)N1CCC[C@H]1C(=O)N[C@@H](CO)C(N)=O [Compound A152]	
